Measured values as given in patent US20150307520A1, “NOVEL HETEROARYL AND HETEROCYCLE COMPOUNDS, COMPOSITIONS AND METHODS THEREOF” (HUTCHISON MEDIPHARMA LIMITED, priority 2012, published 2015).

Legend:
Type in all cases: biochemical
p110β/p85α = p110β/p85α (Homo sapiens, UniProt P42338); test: Transcreener KINASE Assay, kinase inhibition of p110β/p85α; conditions: for PI3Kβ IH % @ 1 uM: 1 uM test compound; for IC50: read-out: PI3Kβ IC50
In short: (§1)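 Kinase reactions run 80 min at room temperature, pH buffered with 50 mM HEPES plus 3 mM MgCl2 and 0.03% CHAPS; the PIP2/ATP mix added was 30 uM/10 uM. Generated ADP is then read by FP immunoassay.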

p110δ/p85α = p110δ/p85α (Homo sapiens, UniProt O00329); test: Transcreener KINASE Assay, kinase inhibition of p110δ/p85α; conditions: for PI3Kδ IH % @ 1 uM: 1 uM test compound; for IC50: read-out: PI3Kδ IC50
Sequence of p110δ/p85α (O00329 whole entry): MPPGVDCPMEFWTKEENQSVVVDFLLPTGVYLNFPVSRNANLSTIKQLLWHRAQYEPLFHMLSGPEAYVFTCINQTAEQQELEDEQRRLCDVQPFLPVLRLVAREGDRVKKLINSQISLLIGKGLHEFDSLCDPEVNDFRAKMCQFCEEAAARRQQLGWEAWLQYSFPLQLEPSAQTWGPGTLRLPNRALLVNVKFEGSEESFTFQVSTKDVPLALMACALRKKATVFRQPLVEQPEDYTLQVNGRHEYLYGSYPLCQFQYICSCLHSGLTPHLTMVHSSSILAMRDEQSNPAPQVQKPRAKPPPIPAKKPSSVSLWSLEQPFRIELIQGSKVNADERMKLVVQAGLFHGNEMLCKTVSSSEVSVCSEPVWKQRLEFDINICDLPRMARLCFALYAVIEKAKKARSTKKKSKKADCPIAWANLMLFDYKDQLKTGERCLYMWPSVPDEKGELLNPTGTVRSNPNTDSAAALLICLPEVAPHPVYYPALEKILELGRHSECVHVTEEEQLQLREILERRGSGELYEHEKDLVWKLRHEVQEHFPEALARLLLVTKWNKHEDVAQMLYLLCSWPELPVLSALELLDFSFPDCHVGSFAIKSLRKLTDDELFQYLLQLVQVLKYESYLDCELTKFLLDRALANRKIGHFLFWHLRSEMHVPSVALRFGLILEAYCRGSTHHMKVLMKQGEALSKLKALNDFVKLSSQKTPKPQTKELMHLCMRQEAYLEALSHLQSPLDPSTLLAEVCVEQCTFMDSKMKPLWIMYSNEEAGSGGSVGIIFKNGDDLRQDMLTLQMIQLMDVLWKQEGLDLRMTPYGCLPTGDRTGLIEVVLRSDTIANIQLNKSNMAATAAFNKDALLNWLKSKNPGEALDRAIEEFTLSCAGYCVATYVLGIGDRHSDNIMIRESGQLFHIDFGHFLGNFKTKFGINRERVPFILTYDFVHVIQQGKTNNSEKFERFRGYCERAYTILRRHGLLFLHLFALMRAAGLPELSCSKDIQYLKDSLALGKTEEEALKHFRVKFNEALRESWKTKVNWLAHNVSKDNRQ
Sequence of p110δ/p85α (P27986 whole entry partner): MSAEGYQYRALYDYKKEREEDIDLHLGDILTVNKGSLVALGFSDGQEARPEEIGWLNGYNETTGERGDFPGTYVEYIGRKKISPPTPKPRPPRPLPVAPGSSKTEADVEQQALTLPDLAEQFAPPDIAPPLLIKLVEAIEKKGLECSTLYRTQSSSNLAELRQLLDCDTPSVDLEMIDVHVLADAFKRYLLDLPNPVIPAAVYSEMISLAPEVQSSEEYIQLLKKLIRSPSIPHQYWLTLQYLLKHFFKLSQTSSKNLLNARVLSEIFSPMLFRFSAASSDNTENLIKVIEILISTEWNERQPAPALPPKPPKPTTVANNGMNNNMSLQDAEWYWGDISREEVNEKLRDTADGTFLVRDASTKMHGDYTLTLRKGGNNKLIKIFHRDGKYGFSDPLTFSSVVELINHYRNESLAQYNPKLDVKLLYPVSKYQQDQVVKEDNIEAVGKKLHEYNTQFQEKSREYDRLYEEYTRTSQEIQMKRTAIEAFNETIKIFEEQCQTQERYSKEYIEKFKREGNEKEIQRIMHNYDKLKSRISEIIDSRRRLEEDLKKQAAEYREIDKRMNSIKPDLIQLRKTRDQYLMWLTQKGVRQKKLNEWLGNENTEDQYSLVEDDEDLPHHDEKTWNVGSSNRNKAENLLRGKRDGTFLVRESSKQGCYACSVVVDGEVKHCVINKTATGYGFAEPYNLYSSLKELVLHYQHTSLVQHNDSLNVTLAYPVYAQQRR
In short: as §1

p110γ = p110γ (Homo sapiens, UniProt P48736); test: Transcreener KINASE Assay, kinase inhibition of p110γ; conditions: for PI3Kγ IH % @ 1 uM: 1 uM test compound; for IC50: read-out: PI3Kγ IC50
Sequence of p110γ (P48736 whole entry): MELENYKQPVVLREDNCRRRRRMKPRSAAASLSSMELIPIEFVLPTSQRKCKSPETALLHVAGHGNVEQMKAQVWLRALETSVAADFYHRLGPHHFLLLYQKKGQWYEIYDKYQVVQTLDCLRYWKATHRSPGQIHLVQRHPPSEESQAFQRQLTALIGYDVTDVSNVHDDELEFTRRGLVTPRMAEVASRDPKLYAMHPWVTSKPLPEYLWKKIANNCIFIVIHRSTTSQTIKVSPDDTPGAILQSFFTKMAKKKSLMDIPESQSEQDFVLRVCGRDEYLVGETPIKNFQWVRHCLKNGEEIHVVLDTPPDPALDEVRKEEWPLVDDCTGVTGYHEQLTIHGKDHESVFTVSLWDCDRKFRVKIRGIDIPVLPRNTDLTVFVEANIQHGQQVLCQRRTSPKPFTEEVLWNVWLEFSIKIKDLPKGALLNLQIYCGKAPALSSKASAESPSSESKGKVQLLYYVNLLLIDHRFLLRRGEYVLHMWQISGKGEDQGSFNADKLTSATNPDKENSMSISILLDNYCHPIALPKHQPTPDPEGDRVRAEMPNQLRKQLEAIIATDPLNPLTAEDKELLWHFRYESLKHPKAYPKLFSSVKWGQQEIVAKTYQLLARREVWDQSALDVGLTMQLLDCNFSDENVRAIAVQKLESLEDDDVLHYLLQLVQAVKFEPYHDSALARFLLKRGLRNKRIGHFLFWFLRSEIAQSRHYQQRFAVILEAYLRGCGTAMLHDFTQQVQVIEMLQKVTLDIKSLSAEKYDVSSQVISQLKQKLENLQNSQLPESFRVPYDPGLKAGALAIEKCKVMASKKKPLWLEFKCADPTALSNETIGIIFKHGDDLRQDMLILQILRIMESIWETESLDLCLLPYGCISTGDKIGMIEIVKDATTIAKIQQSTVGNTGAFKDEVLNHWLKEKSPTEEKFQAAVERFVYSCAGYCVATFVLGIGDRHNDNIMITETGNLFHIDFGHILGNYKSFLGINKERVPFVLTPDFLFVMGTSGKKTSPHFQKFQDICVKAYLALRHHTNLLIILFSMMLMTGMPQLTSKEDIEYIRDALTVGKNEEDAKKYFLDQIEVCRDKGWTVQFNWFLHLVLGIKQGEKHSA
In short: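 FP read-out: far-red competitive immunoassay sensing ADP produced by recombinant p110/p85 or p110γ enzyme. Reaction 80 min RT, then detection mix 60 min RT. IC50 from curve fit.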

Sequence of p110β/p85α (P42338 whole entry): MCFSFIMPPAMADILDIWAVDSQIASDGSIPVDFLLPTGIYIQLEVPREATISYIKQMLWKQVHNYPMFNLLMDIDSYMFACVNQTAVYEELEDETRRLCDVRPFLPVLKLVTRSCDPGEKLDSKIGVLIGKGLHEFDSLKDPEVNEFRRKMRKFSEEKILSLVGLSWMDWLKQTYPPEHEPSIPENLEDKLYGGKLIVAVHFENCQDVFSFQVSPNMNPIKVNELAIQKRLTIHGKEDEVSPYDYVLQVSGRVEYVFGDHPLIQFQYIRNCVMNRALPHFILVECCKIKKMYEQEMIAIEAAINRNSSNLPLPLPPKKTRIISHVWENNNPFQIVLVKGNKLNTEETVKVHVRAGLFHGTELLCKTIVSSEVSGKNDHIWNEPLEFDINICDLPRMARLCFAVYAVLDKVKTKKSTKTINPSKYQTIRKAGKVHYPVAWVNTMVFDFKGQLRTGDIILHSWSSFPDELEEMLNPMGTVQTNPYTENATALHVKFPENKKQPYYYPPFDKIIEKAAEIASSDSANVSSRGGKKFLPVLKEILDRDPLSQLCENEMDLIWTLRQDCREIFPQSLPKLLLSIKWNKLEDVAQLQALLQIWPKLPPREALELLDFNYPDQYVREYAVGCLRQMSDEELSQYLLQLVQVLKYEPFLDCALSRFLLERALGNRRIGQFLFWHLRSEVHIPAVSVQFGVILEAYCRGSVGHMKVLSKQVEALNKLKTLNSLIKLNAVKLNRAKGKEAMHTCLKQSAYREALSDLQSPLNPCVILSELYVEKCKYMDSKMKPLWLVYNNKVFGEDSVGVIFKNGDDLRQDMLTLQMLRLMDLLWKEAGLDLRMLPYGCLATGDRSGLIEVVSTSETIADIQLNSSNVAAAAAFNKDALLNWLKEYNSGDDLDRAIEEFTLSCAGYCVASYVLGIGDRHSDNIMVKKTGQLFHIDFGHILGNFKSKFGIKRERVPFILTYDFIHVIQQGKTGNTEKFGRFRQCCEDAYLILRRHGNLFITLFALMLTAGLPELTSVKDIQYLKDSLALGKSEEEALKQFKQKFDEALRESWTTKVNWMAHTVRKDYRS
Sequence of p110β/p85α (P27986 2-724 partner): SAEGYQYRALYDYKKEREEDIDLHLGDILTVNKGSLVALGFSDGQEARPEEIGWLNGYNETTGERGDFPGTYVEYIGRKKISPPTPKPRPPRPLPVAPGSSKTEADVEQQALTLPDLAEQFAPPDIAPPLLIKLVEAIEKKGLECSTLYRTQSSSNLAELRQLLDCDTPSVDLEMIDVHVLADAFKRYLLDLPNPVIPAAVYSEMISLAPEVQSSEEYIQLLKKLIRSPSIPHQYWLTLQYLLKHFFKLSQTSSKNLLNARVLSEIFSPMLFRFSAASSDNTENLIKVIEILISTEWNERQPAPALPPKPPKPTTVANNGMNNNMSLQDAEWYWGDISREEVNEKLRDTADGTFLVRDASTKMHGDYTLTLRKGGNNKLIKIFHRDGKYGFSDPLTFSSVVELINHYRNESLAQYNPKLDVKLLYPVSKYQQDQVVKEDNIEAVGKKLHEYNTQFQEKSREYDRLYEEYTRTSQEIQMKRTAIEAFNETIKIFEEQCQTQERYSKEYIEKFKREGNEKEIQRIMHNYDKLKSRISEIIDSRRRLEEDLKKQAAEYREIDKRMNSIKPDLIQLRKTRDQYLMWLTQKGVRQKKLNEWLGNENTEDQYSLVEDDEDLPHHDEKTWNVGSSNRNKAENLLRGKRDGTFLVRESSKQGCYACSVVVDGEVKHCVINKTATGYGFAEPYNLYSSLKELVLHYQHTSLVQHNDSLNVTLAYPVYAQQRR

| Compound | PI3Kβ IH % @ 1 uM (p110β/p85α) | PI3Kδ IH % @ 1 uM (p110δ/p85α) | PI3Kγ IH % @ 1 uM (p110γ) | IC50 (p110γ) | IC50 (p110δ/p85α) | IC50 (p110β/p85α) |
| --- | --- | --- | --- | --- | --- | --- |
| CSc1n[nH]c2ncnc(N3CCC[C@H]3c3nn4ccc(Cl)c4c(=O)n3-c3ccccc3)c12 [Compound 221] | 16.3% | 68.0% | 88.6% | 24 nM |  |  |
| CSc1n[nH]c2ncnc(N3CC[C@H]3c3nn4ccc(Cl)c4c(=O)n3-c3ccccc3)c12 [Compound 222] | 40.5% | 43.0% | 88.1% | 21 nM |  |  |
| Nc1ncc(Cl)c(N2CC[C@H]2c2nn3ccc(Cl)c3c(=O)n2-c2ccccc2)n1 [Compound 223] | 22.9% | 81.0% | 71.6% |  | 59 nM |  |
| C#Cc1cnc(N)nc1N1CC[C@H]1c1nn2ccc(Cl)c2c(=O)n1-c1ccccc1 [Compound 224] | 22.7% | 85.9% | >100% |  | 60 nM |  |
| N#Cc1c[nH]c2ncnc(N3C[C@@H](F)C[C@H]3c3nn4ccc(F)c4c(=O)n3-c3ccccc3)c12 [Compound 225] | 96.3% | >100% | >100% | 5 nM | 1 nM | 54 nM |
| COCCNC(=O)c1c[nH]c2ncnc(N3CCC[C@H]3c3nn4ccc(Cl)c4c(=O)n3-c3ccccc3)c12 [Compound 226] | 41.8% | 98.7% | >100% | 30 nM | 9 nM |  |
| N#Cc1cnc(N)nc1N1C[C@@H](F)C[C@H]1c1nn2ccc(F)c2c(=O)n1-c1ccccc1 [Compound 227] | 59.6% | >100% | >100% | 18 nM | 5 nM |  |
| COCCNC(=O)c1c[nH]c2ncnc(N3CC[C@H]3c3nn4ccc(Cl)c4c(=O)n3-c3ccccc3)c12 [Compound 228] | 13.8% | 74.6% | 59.9% |  | 176 nM |  |
| N#Cc1cnc(N)nc1N1C[C@@H](F)C[C@H]1c1nn2ccc(Cl)c2c(=O)n1-c1ccccc1 [Compound 229] | 81.5% | 97.6% | 90.4% | 2 nM | 3 nM | 262 nM |
| N#Cc1cnc(N)nc1N1CCC[C@H]1c1nn2ccc(F)c2c(=O)n1-c1ccccc1 [Compound 230] | 75.2% | >100% | 87.3% | 7 nM | 3 nM | 280 nM |
| N#Cc1cnc(N)nc1N1CCC[C@H]1c1nn2ccc(Cl)c2c(=O)n1-c1ccc(F)cc1 [Compound 231] | 80.5% | 98.1% | 96.8% | 4 nM | 9 nM | 197 nM |
| N#Cc1cnc(N)nc1N1CCC[C@H]1c1nn2ccc(Cl)c2c(=O)n1-c1cccc(F)c1 [Compound 232] | 63.4% | >100% | >100% | 14 nM | 6 nM |  |
| C[C@H]1CCN(c2ncnc3[nH]cc(C#N)c23)C1c1nn2ccc(Cl)c2c(=O)n1-c1ccccc1 (stereo partly drawn) [Compound 233] | >100% | >100% | >100% |  |  |  |
| C[C@H]1CCN(c2ncnc3[nH]cnc23)C1c1nn2ccc(Cl)c2c(=O)n1-c1ccccc1 (stereo partly drawn) [Compound 234] | 83.4% | >100% | >100% |  |  |  |
| C[C@H]1CCN(c2nc(N)ncc2C#N)C1c1nn2ccc(Cl)c2c(=O)n1-c1ccccc1 (stereo partly drawn) [Compound 236] | 79.8% | >100% | 94.9% |  |  |  |
| C[C@H]1CN(c2ncnc3[nH]cnc23)C1c1nn2ccc(Cl)c2c(=O)n1-c1ccccc1 (stereo partly drawn) [Compound 237] | 37.6% | >100% | 86.3% | 35 nM | 14 nM |  |
| C#Cc1cnc(N)nc1N1CCC[C@H]1c1nn2ccc(Cl)c2c(=O)n1-c1ccccc1 [Compound 238] | 33.8% | >100% | >100% | 18 nM | 14 nM |  |
| Cc1nc(N2CCC[C@H]2c2nn3ccc(F)c3c(=O)n2-c2ccccc2)c2nc[nH]c2n1 [Compound 239] | 59.8% | 98.7% | >100% | 75 nM | 18 nM |  |
| Nc1ncc([N+](=O)[O-])c(N2CCC[C@H]2c2nn3ccc(Cl)c3c(=O)n2-c2ccccc2)n1 [Compound 240] | 45.0% | 98.1% | >100% | 36 nM | 34 nM |  |
| Nc1nc2c(c(N3CC[C@H]3c3nn4ccc(Cl)c4c(=O)n3-c3ccccc3)n1)C(=O)CCN2 [Compound 241] | 31.9% | 95.3% | 98.7% | 14 nM | 32 nM |  |
| Nc1nc2c(c(N3CCC[C@H]3c3nn4ccc(Cl)c4c(=O)n3-c3ccccc3)n1)C(=O)CCN2 [Compound 242] | 46.5% | 96.8% | 98.9% | 19 nM | 10 nM |  |
| C[C@H]1CN(c2ncnc3[nH]cc(C#N)c23)[C@@H]1c1nn2ccc(F)c2c(=O)n1-c1ccccc1 [Compound 244] | 58.4% | 99.8% | 92.7% | 30 nM | 4 nM |  |
| Nc1nc2c(c(N3CCC[C@H]3c3nn4ccc(Br)c4c(=O)n3-c3ccccc3)n1)CCC2 [Compound 245] | 38.4% | 78.0% | 77.5% | 337 nM | 341 nM |  |
